From patent US20230167073A1 (Teijin Pharma Limited, priority 2020, published 2023)

molecular target: T1, Human TRPC6 (Homo sapiens, UniProt Q9Y210); assay: Evaluation of TRPC6 channel inhibitory activity (1), FLIPR Calcium 5 Assay Kit, OAG stimulation (Compound Nos. 1-1293); assay type: cell-based; details: Human TRPC6 stably-expressing cells, OAG 30 μM, FLIPR Calcium 5 Assay Kit; read-out: Inhibitory activity (pIC50 class) (converted)
T1 construct: expressed in transfected cells
T1 sequence (Q9Y210 1-931): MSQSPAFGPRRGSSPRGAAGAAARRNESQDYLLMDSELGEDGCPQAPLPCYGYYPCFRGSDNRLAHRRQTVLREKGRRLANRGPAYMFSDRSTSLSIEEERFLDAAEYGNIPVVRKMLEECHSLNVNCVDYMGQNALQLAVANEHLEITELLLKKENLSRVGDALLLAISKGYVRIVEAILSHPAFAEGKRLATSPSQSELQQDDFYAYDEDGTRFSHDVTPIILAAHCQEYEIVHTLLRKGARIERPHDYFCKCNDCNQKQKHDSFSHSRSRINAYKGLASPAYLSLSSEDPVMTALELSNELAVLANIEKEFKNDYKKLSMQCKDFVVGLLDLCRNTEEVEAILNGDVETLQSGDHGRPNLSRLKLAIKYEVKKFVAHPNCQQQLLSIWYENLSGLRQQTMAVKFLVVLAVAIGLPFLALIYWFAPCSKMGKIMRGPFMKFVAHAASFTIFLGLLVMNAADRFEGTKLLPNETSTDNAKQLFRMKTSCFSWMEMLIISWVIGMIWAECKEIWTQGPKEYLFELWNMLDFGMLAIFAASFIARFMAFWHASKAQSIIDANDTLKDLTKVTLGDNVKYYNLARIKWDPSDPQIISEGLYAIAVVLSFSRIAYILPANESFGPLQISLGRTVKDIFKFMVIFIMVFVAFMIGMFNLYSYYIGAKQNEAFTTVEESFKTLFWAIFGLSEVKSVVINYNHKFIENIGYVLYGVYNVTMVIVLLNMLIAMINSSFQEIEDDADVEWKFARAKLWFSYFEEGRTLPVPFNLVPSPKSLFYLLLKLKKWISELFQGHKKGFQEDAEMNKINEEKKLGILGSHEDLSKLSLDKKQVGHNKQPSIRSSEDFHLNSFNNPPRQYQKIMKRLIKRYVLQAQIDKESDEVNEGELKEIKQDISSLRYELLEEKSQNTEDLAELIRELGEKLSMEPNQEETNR
Method in brief: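 Readout is pIC50 from four-parameter logistic fitting of inhibition of the OAG-evoked (30 μM final) fluorescence calcium signal. Human TRPC6 stable cells are dye-loaded with probenecid, and compound is applied 20 min ahead of agonist.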

Cc1nc(-c2ccccc2F)cn1Cc1cc(C#N)ccc1-c1ccc(CCN)cn1 [compound 1152, 4-[5-(2-aminoethyl)pyridin-2-yl]-3-[[4-(2-fluorophenyl)-2-methylimidazol-1-yl]methyl]benzonitrile] and Cc1nc(-c2cccc(F)c2)cn1Cc1cc(C#N)ccc1-c1ccc(CCN)cn1 [compound 1156, 4-[5-(2-aminoethyl)pyridin-2-yl]-3-[[4-(3-fluorophenyl)-2-methylimidazol-1-yl]methyl]benzonitrile] cannot be ordered by IC50: under 10 nM for the first, under 10 nM for the second.

Cc1ccc(-c2cn(Cc3cc(C#N)ccc3-c3ccc(CCN)cn3)c(C)n2)cc1 [compound 1153, 4-[5-(2-aminoethyl)pyridin-2-yl]-3-[[2-methyl-4-(4-methylphenyl)imidazol-1-yl]methyl]benzonitrile] and Cc1nc(-c2ccc(F)cc2)cn1Cc1cc(C#N)ccc1-c1ccc(CCN)cn1 [compound 1154, 4-[5-(2-aminoethyl)pyridin-2-yl]-3-[[4-(4-fluorophenyl)-2-methylimidazol-1-yl]methyl]benzonitrile] cannot be ordered by IC50: under 10 nM for the first, under 10 nM for the second.

First: Cc1cccc(-c2cn(Cc3cc(C#N)ccc3-c3ccc(CCN)cn3)c(C)n2)c1 [compound 1155, 4-[5-(2-aminoethyl)pyridin-2-yl]-3-[[2-methyl-4-(3-methylphenyl)imidazol-1-yl]methyl]benzonitrile]
Second: Cc1nc(-c2ccccn2)cn1Cc1cc(C#N)ccc1-c1ccc(CCN)cn1 [compound 1157, 4-[5-(2-aminoethyl)pyridin-2-yl]-3-[(2-methyl-4-pyridin-2-ylimidazol-1-yl)methyl]benzonitrile]
The IC50 of the first is lower: under 10 nM for the first, 10 to 1000 nM for the second.

Cc1cc(-c2ccccc2)nn1Cc1cc(C#N)ccc1-c1ccc(CCN)cn1 [compound 1158, 4-[5-(2-aminoethyl)pyridin-2-yl]-3-[(5-methyl-3-phenylpyrazol-1-yl)methyl]benzonitrile] and N#Cc1ccc(-c2ccc(CCN)cn2)c(Cn2cnc(-c3ccccn3)c2)c1 [compound 1160, 4-[5-(2-aminoethyl)pyridin-2-yl]-3-[(4-pyridin-2-ylimidazol-1-yl)methyl]benzonitrile] cannot be ordered by IC50: over 1000 nM for the first, over 1000 nM for the second.

Cc1cc(C(C)(C)C)nn1Cc1cc(C#N)ccc1-c1ccc(CCN)cn1 [compound 1159, 4-[5-(2-aminoethyl)pyridin-2-yl]-3-[(3-tert-butyl-5-methylpyrazol-1-yl)methyl]benzonitrile] and Cc1nc(C2CCOCC2)cn1Cc1cc(C#N)ccc1-c1ccc(CN)cn1 [compound 1163, 4-[5-(aminomethyl)pyridin-2-yl]-3-[[2-methyl-4-(oxan-4-yl)imidazol-1-yl]methyl]benzonitrile] fall in the same range of IC50: 10 to 1000 nM for the first, 10 to 1000 nM for the second.

Cc1nc(-c2cccc(F)c2)cn1Cc1cc(C#N)ccc1-c1ccc([C@H](O)CN)cn1 [compound 1161, 4-[5-[(1S)-2-amino-1-hydroxyethyl]pyridin-2-yl]-3-[[4-(3-fluorophenyl)-2-methylimidazol-1-yl]methyl]benzonitrile] and Cc1nc(-c2cccc(F)c2)cn1Cc1cc(C#N)ccc1-c1ncc([C@H](O)CN)cn1 [compound 1162, 4-[5-[(1S)-2-amino-1-hydroxyethyl]pyrimidin-2-yl]-3-[[4-(3-fluorophenyl)-2-methylimidazol-1-yl]methyl]benzonitrile] fall in the same range of IC50: 10 to 1000 nM for the first, 10 to 1000 nM for the second.

First: Cc1nc(C2CCOCC2)cn1Cc1cc(C#N)ccc1-c1ncc(CN)cn1 [compound 1164, 4-[5-(aminomethyl)pyrimidin-2-yl]-3-[[2-methyl-4-(oxan-4-yl)imidazol-1-yl]methyl]benzonitrile]
Second: Cc1nc(C2CCOCC2)cn1Cc1cc(C#N)ccc1-c1ncc([C@H](O)CN)cn1 [compound 1166]
The IC50 of the first is lower: 10 to 1000 nM for the first, over 1000 nM for the second.

Cc1nc(C2CCOCC2)cn1Cc1cc(C#N)ccc1-c1ccc([C@H](O)CN)cn1 [compound 1165] and Cc1nc(CN2CCC(F)CC2)cn1Cc1cc(C#N)ccc1-c1ncc(CCN)cn1 [compound 1177, 4-[5-(2-aminoethyl)pyrimidin-2-yl]-3-[[4-[(4-fluoropiperidin-1-yl)methyl]-2-methylimidazol-1-yl]methyl]benzonitrile] cannot be ordered by IC50: over 1000 nM for the first, over 1000 nM for the second.

First: N#Cc1ccc(-c2ncc(CCN)cn2)c(Cn2cc(-c3ccccc3)nn2)c1 [compound 1167, 4-[5-(2-aminoethyl)pyrimidin-2-yl]-3-[(4-phenyltriazol-1-yl)methyl]benzonitrile]
Second: N#Cc1ccc(-c2ncc(CN)cn2)c(Cn2cc(-c3ccccc3)nn2)c1 [compound 1168, 4-[5-(aminomethyl)pyrimidin-2-yl]-3-[(4-phenyltriazol-1-yl)methyl]benzonitrile]
The IC50 of the first is lower: under 10 nM for the first, 10 to 1000 nM for the second.

N#Cc1ccc(-c2ncc(CCN)cn2)c(Cn2ncc(-c3ccccc3)n2)c1 [compound 1169, 4-[5-(2-aminoethyl)pyrimidin-2-yl]-3-[(4-phenyltriazol-2-yl)methyl]benzonitrile] and N#Cc1ccc(-c2ncc(CN)cn2)c(Cn2ncc(-c3ccccc3)n2)c1 [compound 1170, 4-[5-(aminomethyl)pyrimidin-2-yl]-3-[(4-phenyltriazol-2-yl)methyl]benzonitrile] cannot be ordered by IC50: over 1000 nM for the first, over 1000 nM for the second.

Cc1nc(C(C)C)cn1Cc1cc(C#N)ccc1-c1ncc(CCN)cn1 [compound 1171, 4-[5-(2-aminoethyl)pyrimidin-2-yl]-3-[(2-methyl-4-propan-2-ylimidazol-1-yl)methyl]benzonitrile] and Cc1nc(C(C)C)cn1Cc1cc(C#N)ccc1-c1ncc(CN)cn1 [compound 1172, 4-[5-(aminomethyl)pyrimidin-2-yl]-3-[(2-methyl-4-propan-2-ylimidazol-1-yl)methyl]benzonitrile] fall in the same range of IC50: 10 to 1000 nM for the first, 10 to 1000 nM for the second.

Compared with Cc1nc(C(F)(F)F)cn1Cc1cc(C#N)ccc1-c1ncc(CCN)cn1 [compound 1173, 4-[5-(2-aminoethyl)pyrimidin-2-yl]-3-[[2-methyl-4-(trifluoromethyl)imidazol-1-yl]methyl]benzonitrile], Cc1nc(C(F)(F)F)cn1Cc1cc(C#N)ccc1-c1ncc(CN)cn1 [compound 1174, 4-[5-(aminomethyl)pyrimidin-2-yl]-3-[[2-methyl-4-(trifluoromethyl)imidazol-1-yl]methyl]benzonitrile] is higher in IC50: under 10 nM for the first, 10 to 1000 nM for the second.

Cc1nc(CN2CCCC2)cn1Cc1cc(C#N)ccc1-c1ncc(CCN)cn1 [compound 1175, 4-[5-(2-aminoethyl)pyrimidin-2-yl]-3-[[2-methyl-4-(pyrrolidin-1-ylmethyl)imidazol-1-yl]methyl]benzonitrile] and Cc1nc(CN2CCC(C(F)(F)F)CC2)cn1Cc1cc(C#N)ccc1-c1ncc(CCN)cn1 [compound 1180, 4-[5-(2-aminoethyl)pyrimidin-2-yl]-3-[[2-methyl-4-[[4-(trifluoromethyl)piperidin-1-yl]methyl]imidazol-1-yl]methyl]benzonitrile] cannot be ordered by IC50: over 1000 nM for the first, over 1000 nM for the second.

First: Cc1nc(C(F)F)cn1Cc1cc(C#N)ccc1-c1ncc(CCN)cn1 [compound 1176, 4-[5-(2-aminoethyl)pyrimidin-2-yl]-3-[[4-(difluoromethyl)-2-methylimidazol-1-yl]methyl]benzonitrile]
Second: Cc1nc(CN(C)C)cn1Cc1cc(C#N)ccc1-c1ncc(CCN)cn1 [compound 1178, 4-[5-(2-aminoethyl)pyrimidin-2-yl]-3-[[4-[(dimethylamino)methyl]-2-methylimidazol-1-yl]methyl]benzonitrile]
The IC50 of the first is lower: 10 to 1000 nM for the first, over 1000 nM for the second.
